Converted amounts (≈) assume the structure as drawn.
Experiments:
[1] = Solubility of hydroxycinnamic acids in pure solvents (orbital shaker 72 h, HPLC); assay type: physicochemical; conditions: for Increase of solubility in EGMME with respect to 101: EGMME vs 101; for solubility at 72 h: organic solvent or mixture, thermodynamic from solid
Description: (§1) Amber vials were used to protect the samples from light. To ensure reliability, all of the experiments were performed in triplicate. The samples were shaken in a biological orbital shaker at 100 rpm for 72 h at 25 °C.
Before the samples were measured, they must be sonicated to avoid the formation of dimers and ensure the uniformity of the peaks.
(§2) The column used for the quantification was a C18 Phenomenex Luna ([…] × 5 μm).
Calibration curves were generated using solutions varying in the concentrations of the three studied acids within the HPLC detection range (0–0.006 mg). These solutions were sonicated to ensure uniformity of the peaks and then injected into the HPLC. The linearity of the curves was evaluated by linear regression analysis. Details of the calibrations are gathered in the Supporting Information (Figures S27–S29).
Following this period, the solution was checked for saturation and filtered. The filtered solution was then immediately diluted for hydroxycinnamic acid quantification by HPLC.

[2] = physchem; conditions: for solubility at 72 h: 25 °C, thermodynamic from solid, Solubility (mg/mL)
Description: as §1, §2

[3] = comparison solvents; cited from earlier work
[4] = pure 1,3-propylene glycol (PG), 25 °C, solvent PG (1,3-propylene glycol), 298 K, read-out: Solubility
[5] = pure ethylene glycol (EG), 25 °C, solvent EG (ethylene glycol), 298 K, read-out: Solubility
[6] = pure solvent 3F00, 25 °C, solvent 3F00, Tables S-1 to S-3, read-out: Solubility
[7] = pure solvent 3i00, 25 °C, solvent 3i00, Tables S-1 to S-3, read-out: Solubility
[8] = pure solvent 3i03i, 25 °C, solvent 3i03i, 298 K, read-out: Solubility
[9] = pure solvent 100, 25 °C, solvent 100, Tables S-1 to S-3, read-out: Solubility
[10] = pure solvent 101, 25 °C, solvent 101, Tables S-1 to S-3, read-out: Solubility
[11] = pure solvent 111, 25 °C, solvent 111, Tables S-1 to S-3, read-out: Solubility
[12] = pure solvent 111 triether, 25 °C, solvent 111 triether, 298 K, read-out: Solubility
[13] = pure solvent 200, 25 °C, solvent 200, Tables S-1 to S-3, read-out: Solubility
[14] = pure solvent 202, 25 °C, solvent 202, 298 K, read-out: Solubility
[15] = pure solvent 202, 25 °C, solvent 202, Tables S-1 to S-3, read-out: Solubility
[16] = pure solvent 300, 25 °C, solvent 300, Tables S-1 to S-3, read-out: Solubility
[17] = pure solvent 400, 25 °C, solvent 400, Tables S-1 to S-3, read-out: Solubility
[18] = pure solvent 400, 25 °C, solvent 400, Tables S-13 to S-15, read-out: Experimental solubility
[19] = pure solvent 404, 25 °C, solvent 404, Tables S-1 to S-3, read-out: Solubility
[20] = pure solvent EG, 25 °C, solvent EG, Tables S-1 to S-3, read-out: Solubility
[21] = pure solvent EGDME, 25 °C, solvent EGDME, Tables S-1 to S-3, read-out: Solubility
[22] = pure solvent EGMME, 25 °C, solvent EGMME, Tables S-1 to S-3, read-out: Solubility
[23] = pure solvent PG, 25 °C, solvent PG, Tables S-1 to S-3, read-out: Solubility

Row | SMILES | Increase of solubility in EGMME with respect to 101 [1] [%] | solubility at 72 h [1, 4] [mg/mL] | solubility at 72 h [1, 5] [mg/mL] | solubility at 72 h [1, 6] [mg/mL] | solubility at 72 h [1, 7] [mg/mL] | solubility at 72 h [1, 8] [mg/mL] | solubility at 72 h [1, 9] [mg/mL] | solubility at 72 h [1, 10] [mg/mL] | solubility at 72 h [1, 11] [mg/mL] | solubility at 72 h [1, 12] [mg/mL] | solubility at 72 h [1, 13] [mg/mL] | solubility at 72 h [1, 14] [mg/mL] | solubility at 72 h [1, 15] [mg/mL] | solubility at 72 h [1, 16] [mg/mL] | solubility at 72 h [1, 17] [mg/mL] | solubility at 72 h [1, 18] [mg/mL] | solubility at 72 h [1, 19] [mg/mL] | solubility at 72 h [1, 20] [mg/mL] | solubility at 72 h [1, 21] [mg/mL] | solubility at 72 h [1, 22] [mg/mL] | also measured
1 | O=C(O)/C=C/c1ccc(O)cc1 [Coumaric acid, coumaric acid] | 45 | 91.3 (≈ 556 mM) | 103 (≈ 627 mM) | 17.2 (≈ 105 mM) | 112 (≈ 685 mM) | 85.7 (≈ 522 mM) | 141 (≈ 861 mM) | 176 (≈ 1070 mM) | 110 (≈ 668 mM) | 109 (≈ 664 mM) | 137 (≈ 832 mM) | 122 (≈ 743 mM) | 120 (≈ 731 mM) | 113 (≈ 687 mM) | 95.1 (≈ 579 mM) | 93.1 (≈ 567 mM) | 49.3 (≈ 300 mM) | 103 (≈ 627 mM) | 161 (≈ 980 mM) | 256 (≈ 1560 mM) | solubility at 72 h ([1]; pure solvent 3F00, 25 °C, solvent 3F00, 298 K, read-out: Solubility): 19.6 mg/mL (≈ 119 mM); solubility at 72 h ([1]; pure solvent 3F03F, 25 °C, solvent 3F03F, 298 K, read-out: Solubility): 2 mg/mL (≈ 12.2 mM); solubility at 72 h ([1]; pure solvent 3F03F, 25 °C, solvent 3F03F, Tables S-1 to S-3, read-out: Solubility): 2.7 mg/mL (≈ 16.4 mM); solubility at 72 h ([1]; pure solvent 100, 25 °C, solvent 100, Tables S-13 to S-15, read-out: Experimental solubility): 142 mg/mL (≈ 863 mM); solubility at 72 h ([1]; pure solvent 101, 25 °C, solvent 101, 298 K, read-out: Solubility): 176 mg/mL (≈ 1070 mM); solubility at 72 h ([1]; pure solvent 101, 25 °C, solvent 101, Tables S-13 to S-15, read-out: Experimental solubility): 177 mg/mL (≈ 1080 mM); solubility at 72 h ([1]; pure solvent 303, 25 °C, solvent 303, 298 K, read-out: Solubility): 74.6 mg/mL (≈ 454 mM); solubility at 72 h [1, 23]: 91.1 mg/mL (≈ 555 mM); Solubility ([1]; solvent EG (ethylene glycol), 298 K): 102 mg/mL (≈ 621 mM); solubility at 72 h [2]: 203 mg/mL (≈ 1240 mM); solubility at 72 h ([2]; water): 0.4 mg/mL (≈ 2.44 mM); Increase of solubility in the water/101 mixture compared to the solubility in water ([2]; 72 h): 500 fold
2 | O=C(O)/C=C/c1ccc(O)c(O)c1 [Caffeic acid] | 21 | 36.5 (≈ 203 mM) | 55.8 (≈ 310 mM) | 5.5 (≈ 30.5 mM) | 45.8 (≈ 254 mM) | 25.2 (≈ 140 mM) | 75.7 (≈ 420 mM) | 81.1 (≈ 450 mM) | 32.5 (≈ 180 mM) | 32.5 (≈ 180 mM) | 61.9 (≈ 344 mM) | 34 (≈ 189 mM) | 12 (≈ 66.6 mM) | 44.5 (≈ 247 mM) | 33.5 (≈ 186 mM) | 33.4 (≈ 185 mM) | 11.1 (≈ 61.6 mM) | 42 (≈ 233 mM) | 32.5 (≈ 180 mM) | 98.9 (≈ 549 mM) | solubility at 72 h ([1]; pure ethylene glycol dimethyl ether (EGDME), 25 °C, solvent EGDME (ethylene glycol dimethyl ether), 298 K, read-out: Solubility): 32.5 mg/mL (≈ 180 mM); solubility at 72 h ([1]; pure solvent 3i03i, 25 °C, solvent 3i03i, Tables S-1 to S-3, read-out: Solubility): 25.1 mg/mL (≈ 139 mM); solubility at 72 h ([1]; pure solvent 111, 25 °C, solvent 111, Tables S-13 to S-15, read-out: Experimental solubility): 32.5 mg/mL (≈ 180 mM); solubility at 72 h ([1]; pure solvent 303, 25 °C, solvent 303, Tables S-1 to S-3, read-out: Solubility): 17.2 mg/mL (≈ 95.5 mM); solubility at 72 h [1, 23]: 27.4 mg/mL (≈ 152 mM); solubility at 72 h [2]: 85 mg/mL (≈ 472 mM); solubility at 72 h ([2]; water): 0.8 mg/mL (≈ 4.44 mM); Increase in the solubility compared to pure 100 ([2]; 72 h): 20%; Increase of solubility in the water/101 mixture compared to the solubility in water ([2]; 72 h): 140 fold
3 | OCC(O)CO [glycerol] | – | – | – | – | – | – | – | – | – | – | – | – | – | – | – | – | – | – | – | – | Viscosity [3]: 1200 cP

— paper PMC12175220, “Eco-Friendly Solvents for Bioactives: Solubilization of Hydroxycinnamic Acids in Glycerol-Derived Ethers” (ACS Sustainable Chemistry & Engineering, 2025)
